Series [1] in a line: Blood chemistries and liver biopsies under amiodarone/itraconazole, dogs.
Series [2] in a line: Blood chemistries and liver biopsies under amiodarone/itraconazole, monkeys.
Series [3] is described as follows: in vivo. Conditions: human.
The conditions of series [4]: in vivo.
Method: Accordingly, prior to additional testing, a dosage of Itraconazole and Amiodarone was prepared in accordance with the above example, but with nanomilling of the Itraconazole before formulating into pharmaceutical compositions and administration to patients. In this example, a suspension of itraconazole was prepared and then subject to milling using a media mill such as disclosed in Kumar et al., J. Pharm. Sci. 104:3018-3028 (2015), wherein Itraconazole (1%, w/v) was suspended in a desired concentration of an aqueous stabilizer solution, and the prepared suspension was stirred for 30 minutes or more for complete wetting of the drug by the stabilizer solution. The suspension (e.g., 150 mL) was then wet milled or wet grinded using a conventional wet milling or grinding device, namely one manufactured by Netzsch of Exton, Pa. Using this equipment, the mill is operated at a suitable speed, e.g., 2500 rpm in a continuous mode for a time suitable to reduce particle size to a range of 1 and 400 nm, e.g., 75 minutes. The temperature of the sample was maintained at below 25° C. during the process, and two cooling bath recirculators were used, including one attached to the milling device and the other attached to suspension recirculation chambers. […]
For series [5] the following is noted: increase from 5 mg/kg to 10 mg/kg once daily; cited from earlier work.
For series [6] the following is noted: cited from earlier work.

These results are taken from patent publication US10736891B2, “Composition and method for treating chagas disease” (priority 2016, dated 2020).

Regarding `CCCCc1oc2ccccc2c1C(=O)c1cc(I)c(OCCN(CC)CC)c(I)c1` [Amiodarone], in series [1], the arrythmias stood at 0 and the “hepatic effects (multiple blood chemistries)” value worked out at 0. For the same compound, in series [2], the arrythmias came out at 0 and the “hepatic effects (multiple blood chemistries)” value was 0.

A word on the Cmax: it is the highest concentration seen after dosing. With `CCC(C)n1ncn(-c2ccc(N3CCN(c4ccc(OCC5COC(Cn6cncn6)(c6ccc(Cl)cc6Cl)O5)cc4)CC3)cc2)c1=O` (stereo not shown) [Itraconazole], the Cmax was determined as 3550 ng/mL in series [3] (5 mg/kg) and 13500 ng/mL in series [3] (po, 10 mg/kg). Moreover, the “increase in plasma Itraconazole level compared with the Cmax of a previous study (Paniz-Mondolfi et al. 2009)” value in series [3] (10 mg/kg) was 5-6 fold. Further, the “increase of bioavailability of itraconazole” value in series [4] came to 2000%. In series [5], the “Itraconazole Cmax increase” value was 5-6 fold. The “Itraconazole plasma level when given with food compared with without food” value in series [6] was “higher”.
